Measured values: the METLIN SMRT retention time set (Domingo-Almenara et al. 2019)

Experiment: gradient 5% acetonitrile 3 min, to 50% in 2 min, to 85% in 15 min, held 3 min, 100 µL/min
Conditions: column: Zorbax Extend-C18 2.1 x 50 mm; eluents: water / acetonitrile, 0.1% formic acid
How it was run: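 In both positive and negative ionization mode, a quadrupole time-of-flight mass spectrometer coupled to HPLC analyzed pure standards run in mixtures of ~100 molecules. The Zorbax Extend-C18 column (2.1 × 50 mm, 1.8 μm) was operated at 100 μL/min with water and acetonitrile, each containing 0.1% formic acid. The dead volume was 40 μL and the dwell volume 900 μL. Retention time came from adduct peaks that were computationally picked and individually inspected by hand.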
In the case of `O=C(NCc1ccc2c(c1)OCO2)c1cn2c(n1)CCCC2`, the RP-LC retention time is reported as 581 s.
`CCOc1ccc(Nc2c(C(=O)N3CCCCC3CC)cnc3nc(C)ccc23)cc1` (stereo not given) showed an RP-LC retention time of 683 s.
Work on `Cc1cc(C)n(-c2nc(-c3ccccc3)cc(=O)n2CC(=O)N2CCCc3ccccc32)n1` yielded an RP-LC retention time of 1040 s.
In the case of `O=C(NCCCN1CCCC1=O)c1c(OCC2CC2)cc(=O)n2c1CCCCC2`, the RP-LC retention time is reported as 602 s.
`CC(C)c1nc2cc3c(cc2n1CC(=O)Nc1ccc2c(c1)OCCO2)OCCO3` gave an RP-LC retention time of 654 s.
In the case of `O=C(Cn1ccc2sccc2c1=O)Nc1cc(F)cc(F)c1`, the RP-LC retention time is reported as 784 s.
`O=C(Cc1ccccc1Cl)N1CCC2(CC1)N=C(c1ccccc1)NO2` gave an RP-LC retention time of 841 s.
With `CCc1ccccc1NC(=O)C(=O)c1cn(CC(=O)N2CCCC2)c2ccccc12` the RP-LC retention time was 644 s.
For `CCc1ccccc1NS(=O)(=O)c1cc(-c2[nH]ncc2C(=O)N(C)C)oc1C`, the RP-LC retention time was 729 s.
`CCc1cc(C2CCCN2Cc2ccc(OCC(N)=O)c(OC)c2)on1` (stereo not given) showed an RP-LC retention time of 570 s.
Molecule `CCCCOc1ccc(-c2ccc(=O)n(Cc3nc(-c4ccc(F)cc4)no3)n2)cc1` has an RP-LC retention time of 1290 s.
`Cn1cnc([N+](=O)[O-])c1Sc1ncn[nH]1` showed an RP-LC retention time of 626 s.
For `COCc1cc(=O)n(CC(=O)Nc2ccc(F)cc2)c(N2CCOCC2)n1`, the RP-LC retention time was 797 s.
Work on `O=C(NCc1cccnc1)C(CCO)Sc1nc2sc3c(c2c(=O)[nH]1)CCCC3` (stereo not given) yielded an RP-LC retention time of 544 s.
`C=CCN(CC=C)C(=O)C1CCN(C(=O)c2cccc(F)c2)CC1` showed an RP-LC retention time of 1250 s.
`Cc1ccc(N2C(=O)CC(N3CCC(C(N)=O)CC3)C2=O)c(Cl)c1` (stereo not given) showed an RP-LC retention time of 614 s.
With `Cc1nc2cc(N3CC(C(=O)Nc4ccc(C)c(Cl)c4)CC3=O)ccc2o1` (stereo not given) the RP-LC retention time was 819 s.
`CCn1cc(S(=O)(=O)N2CC(Cn3c(C)cnc3-c3ccncc3)C2)cn1` showed an RP-LC retention time of 574 s.
Work on `Cc1cc(NC(=O)CSc2nc3ccccc3s2)no1` yielded an RP-LC retention time of 810 s.
`Cc1cccc(OCc2nc(-c3ccc(NS(=O)(=O)c4cccs4)cc3)no2)c1` gave an RP-LC retention time of 1090 s.
In the case of `CCNC(=O)c1nc(C(=O)NCc2ccc(F)c(Cl)c2)cs1`, the RP-LC retention time is reported as 819 s.
`O=C(Cc1ccc(Cl)cc1)NCC1CCN(C2CCCC2)CC1` showed an RP-LC retention time of 566 s.
`Cc1ccc(CNC(=O)N2CCC(OC3CCN(S(C)(=O)=O)CC3)CC2)cc1` showed an RP-LC retention time of 760 s.
With `COc1ccc(COc2cc3oc(=O)c4cc(C(C)O)ccc4c3cc2OC)cc1` (stereo not given) the RP-LC retention time was 942 s.
With `Cc1ccc(C)c(N2CCN(c3ccnc(SCC(=O)Nc4ccc(F)cc4C)n3)CC2)c1` the RP-LC retention time was 1010 s.
With `CSc1cccc(NC(=O)C2CCN(S(=O)(=O)c3cn(C)cn3)CC2)c1` the RP-LC retention time was 736 s.
`CCN1CCN(c2c(S(=O)(=O)c3ccc(OC)cc3)cnc3cc(OC)c(OC)cc23)CC1` gave an RP-LC retention time of 628 s.
Work on `CCc1nccn1Cc1nc(-c2cccc(C(F)(F)F)c2)no1` yielded an RP-LC retention time of 686 s.
For `O=C(c1cnn2c1CCCC2)N1CCCC1`, the RP-LC retention time was 614 s.
With `O=C(CSc1ncn[nH]1)Nc1ccc(Cl)cc1` the RP-LC retention time was 642 s.
Molecule `Cn1c(-c2cccs2)nn(CCNC(=O)c2ccccc2SC(F)F)c1=O` has an RP-LC retention time of 677 s.
`Cc1ccccc1Cn1c(CN2CCC(C(=O)NCCc3ccco3)CC2)cc2ccccc21` showed an RP-LC retention time of 805 s.
`CCc1nncn1C1CCN(S(=O)(=O)c2cc(C)ccc2C)CC1` gave an RP-LC retention time of 752 s.
Work on `CCCn1cc(S(=O)(=O)NCc2cccc(F)c2)c2cccnc21` yielded an RP-LC retention time of 936 s.
For `Cc1ccc(CNC(=O)CSc2ccc(N3CCCC(C(=O)NC4CC4)C3)nn2)cc1` (stereo not given), the RP-LC retention time was 643 s.
With `COc1cc2c(cc1OC)CN(C(=O)CSc1ncnc3sc(C)c(C)c13)CC2` the RP-LC retention time was 851 s.
`Cc1ccccc1CNC1=NCCNC12CCN(S(=O)(=O)c1ccc(Cl)cc1)CC2` showed an RP-LC retention time of 753 s.
Work on `COc1ccc(N2C=C(C(=O)N3CCCC3)S(=O)(=O)c3ccc(Cl)cc32)cc1` yielded an RP-LC retention time of 856 s.
`CCOCc1nc(C2CCCN2S(=O)(=O)c2ccc3c(c2)CCC3)no1` (stereo not given) gave an RP-LC retention time of 1020 s.
`CCn1nc(C)c2ccnc(N3CCC(C(=O)N4CCN(c5ccc(Cl)cc5)CC4)CC3)c21` gave an RP-LC retention time of 780 s.
Molecule `COC(=O)c1ccccc1Nc1c(-c2ccc(Cl)cc2)nc2cnccn12` has an RP-LC retention time of 1130 s.
For `Cc1cc2nn(CC(=O)NCc3ccc4c(c3)OCO4)c(=O)n2c(-c2ccccc2)n1`, the RP-LC retention time was 600 s.
`CN1C(=O)CCc2cc(NC(=O)C3CCC3)ccc21` gave an RP-LC retention time of 668 s.
Work on `CC(Oc1ccccc1)C(=O)Nc1ccc2c(c1)Sc1ncccc1C(=O)N2C(C)C` (stereo not given) yielded an RP-LC retention time of 930 s.
For `O=C(Cn1ccc2sccc2c1=O)Nc1cccc(F)c1`, the RP-LC retention time was 746 s.
With `N#CCSc1nnc2sc3ccccc3n12` the RP-LC retention time was 671 s.
For `Fc1cccc(CSc2ccc(-c3ccc4c(c3)OCO4)nn2)c1`, the RP-LC retention time was 1020 s.
`CCOc1ccc(N2C(=O)C3N=NN(Cc4nc(-c5cccc(Br)c5)no4)C3C2=O)cc1` (stereo not given) showed an RP-LC retention time of 1080 s.
`Cc1nc(Cn2cccc2C(=O)Nc2ccc(C(C)C)cc2)no1` gave an RP-LC retention time of 982 s.
Work on `Cc1ccc(NC(=O)C2CCN(S(=O)(=O)c3c(C)[nH]c(C)c3C(=O)N3CCCC3)CC2)cc1C` yielded an RP-LC retention time of 727 s.
Molecule `CC(=O)N1CCc2cc(S(=O)(=O)C(C)CC(=O)N3CCN(c4ccc(C)cc4C)CC3)ccc21` (stereo not given) has an RP-LC retention time of 968 s.
In the case of `Cn1cnnc1SCCNC(=O)C1CN(c2nc3ccccc3s2)C1`, the RP-LC retention time is reported as 573 s.
Molecule `COCCC1(NC(=O)c2ocnc2C)CCN(S(C)(=O)=O)CC1` has an RP-LC retention time of 614 s.
Work on `COC(=O)c1ccc2c(=O)n(-c3ccccc3)c(N3CCCCCC3)nc2c1` yielded an RP-LC retention time of 1240 s.
For `Cc1noc(C)c1-c1ccc(S(=O)(=O)N2CCCC2)cc1`, the RP-LC retention time was 951 s.
In the case of `CCn1cc(C(=O)NCc2ccc(C)o2)c2cccnc21`, the RP-LC retention time is reported as 742 s.
`CCCn1c(=O)c(N2CCC(NC(=O)Nc3ccc(Cl)cc3)CC2)nc2ccccc21` showed an RP-LC retention time of 1090 s.
Molecule `COc1ccc(Cl)cc1NC(=O)N1CCC(n2cnc3ccc(F)cc3c2=O)CC1` has an RP-LC retention time of 871 s.
For `CC(C)CNC(=O)C1CCN(C(=O)Nc2ccc(NC(=O)Nc3ccccc3)cc2)CC1`, the RP-LC retention time was 812 s.
Molecule `NC(=O)C1CCN(CC(=O)Nc2nc(-c3ccccc3)cs2)CC1` has an RP-LC retention time of 588 s.
`O=C(NCCc1c[nH]c2ccccc12)C1CC(=O)N(Cc2ccccc2)C1` (stereo not given) gave an RP-LC retention time of 736 s.
With `CC(=O)c1ccc(NC(=O)N2C[C@@H]3C[C@H]2C[C@@H]3NC(=O)c2ccccc2)cc1` the RP-LC retention time was 681 s.
`CCCCCNC(=O)C1CC(=O)N(CCc2c[nH]c3ccc(Cl)cc23)C1` (stereo not given) gave an RP-LC retention time of 740 s.
In the case of `O=C(C1Sc2ccccc2N(CC(=O)N2CCc3ccccc32)C1=O)N1CCCCCC1` (stereo not given), the RP-LC retention time is reported as 987 s.
For `CN(C(=O)Cn1cccc1-c1nc(-c2ccc3c(c2)OCO3)no1)c1ccccc1`, the RP-LC retention time was 1090 s.
In the case of `CCC(CC)NC(=O)C1CCN(c2cn[nH]c(=O)c2)C1` (stereo not given), the RP-LC retention time is reported as 612 s.
`Cc1ccc(C2Cn3nnc(-c4nc(-c5ccccc5Cl)no4)c3CO2)c(C)c1` (stereo not given) showed an RP-LC retention time of 1290 s.
With `CCn1cc(-c2ccc(C)cc2)cc1C(=O)N1CCOCC1` the RP-LC retention time was 932 s.
With `COc1ccc(Nc2c(C(=O)N3CCCCC3)cnc3nc(C)ccc23)cc1OC` the RP-LC retention time was 588 s.
Molecule `COc1cccc(S(=O)(=O)N2CCCC(Cn3c(C)nc4cccnc43)C2)c1` (stereo not given) has an RP-LC retention time of 693 s.
`CCC1Oc2ccc(S(=O)(=O)N3CCC(C(=O)Nc4ccccc4C)CC3)cc2NC1=O` (stereo not given) gave an RP-LC retention time of 814 s.
With `Cc1cc(C)c(S(=O)(=O)N2CCCC2c2nc(-c3cccc(Cl)c3)no2)c(C)c1` (stereo not given) the RP-LC retention time was 1350 s.
In the case of `Cc1ccc(C)c2sc(NC(=O)c3cccc(N4C(=O)CCC4=O)c3)nc12`, the RP-LC retention time is reported as 852 s.
`COC(=O)CNC(=O)Cc1c(C)nn(-c2nc(-c3ccc(C)cc3)cs2)c1C` gave an RP-LC retention time of 963 s.
For `O=C(O)c1ccc(CCCc2ccc(OCCc3ccc(F)cc3)cc2)o1`, the RP-LC retention time was 1090 s.
Work on `Cc1ccc2[nH]cc(CCN3CC(C(=O)NCCc4ccc(F)cc4)CC3=O)c2c1` (stereo not given) yielded an RP-LC retention time of 821 s.
`Cc1cccc(-c2noc(C3CCCN3C(=O)NCc3ccc(F)cc3)n2)c1` (stereo not given) gave an RP-LC retention time of 974 s.
Molecule `Clc1ccc(-c2ccc(CNc3ncn[nH]3)o2)c(Cl)c1` has an RP-LC retention time of 734 s.
Molecule `COc1ccc(Cl)cc1NS(=O)(=O)c1cc2c(s1)CCN(C(=O)C1CCC1)C2` has an RP-LC retention time of 973 s.
In the case of `O=C(CN1C(=O)c2ccccc2C1=O)N1CCc2ccccc2C1`, the RP-LC retention time is reported as 755 s.
`COCCCn1c(=O)c2ccccc2n(Cc2nc(-c3cccc(Cl)c3)no2)c1=O` gave an RP-LC retention time of 1100 s.
Molecule `Cc1sc(NC(=O)c2cccs2)nc1-c1ccc2c(c1)NC(=O)C(C)O2` (stereo not given) has an RP-LC retention time of 883 s.
For `Clc1ccc(C2Cn3nnc(-c4nc(-c5ccncc5)no4)c3CO2)cc1` (stereo not given), the RP-LC retention time was 1000 s.
Work on `Cc1ccc(-c2cc(C(F)(F)F)on2)cc1S(=O)(=O)N1CCN(c2ccccn2)CC1` yielded an RP-LC retention time of 868 s.
With `O=S(=O)(CCc1ccccc1)N1CCN(c2ccc3nnc(-c4ccco4)n3n2)CC1` the RP-LC retention time was 752 s.
For `O=C(O)c1ccc2c(c1)N(S(=O)(=O)c1ccccc1F)CC2`, the RP-LC retention time was 789 s.
For `COC(=O)[C@H](Cc1ccc([N+](=O)[O-])cc1)NC(=O)c1cccc2ccccc12`, the RP-LC retention time was 909 s.
Work on `Cc1cc(C(F)F)n2nc(C(=O)N3CCCC3c3ccc(F)cc3)nc2n1` (stereo not given) yielded an RP-LC retention time of 808 s.
Molecule `O=C(Nc1ccc(F)cc1)C1CCN(C(=O)c2ncn3c2COC(c2ccc(F)cc2)C3)CC1` (stereo not given) has an RP-LC retention time of 798 s.
`COCCc1noc(C2CN(C(=O)c3cn(C)cn3)C2)n1` showed an RP-LC retention time of 555 s.
